This passage reports RP-LC retention time results from the METLIN SMRT retention time set (Domingo-Almenara et al. 2019).

This series is described as follows: gradient 5% acetonitrile 3 min, to 50% in 2 min, to 85% in 15 min, held 3 min, 100 µL/min. The note with it: column: Zorbax Extend-C18 2.1 x 50 mm; eluents: water / acetonitrile, 0.1% formic acid. The method in brief: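 Retention times come from adduct peaks that were picked computationally and then checked by hand. The standards, pure and pooled in mixtures of ~100 molecules, were run on a Zorbax Extend-C18 column (2.1 × 50 mm, 1.8 μm) at 100 μL/min with water and acetonitrile, each with 0.1% formic acid. Detection was by quadrupole time-of-flight mass spectrometry in positive and negative ionization mode, with a dead volume of 40 μL and a dwell volume of 900 μL.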
`CCCn1c(=O)c(C)nc2cc(-c3noc(C4CC(=O)N(C5CCCC5)C4)n3)ccc21` (stereo not given) showed an RP-LC retention time of 878 s.

In the case of `Cc1sc2ccn(Cc3ccc(F)cc3)c(=O)c2c1C(=O)N1CCOCC1`, the RP-LC retention time worked out at 713 s.

`COc1ccc(N2CCN(c3nc4ccccc4cc3-c3noc(C)n3)CC2)cc1` came in with an RP-LC retention time of 681 s.

In the case of `COc1ccc2[nH]c(=O)c(CCC(=O)NCc3cccc(OC)c3OC)cc2c1`, the RP-LC retention time amounted to 694 s.

Turning to `COc1cccc(NC(=O)Nc2nccn(-c3ccc(Br)cc3)c2=O)c1`, the RP-LC retention time came to 983 s.

Compound `Cc1cccc2c(C(=O)NCC(C)C)c3c(nc12)CCC3` registered an RP-LC retention time of 688 s.

In turn, `COc1ccc(C(=O)NC2CCN(c3cc(-c4cccs4)[nH]n3)C2)c(C)c1` (stereo not given) came in with an RP-LC retention time of 712 s.

Take `Cc1ccc(-c2csc(NC(=O)CCCOc3ccccc3C)n2)cc1`: the RP-LC retention time is 1300 s.

The compound `CC(C)OC(=O)CSc1nnc2c(S(=O)(=O)N3CCN(c4ccc(F)cc4)CC3)cccn12` registered an RP-LC retention time of 917 s.

Take `Cc1cc(CN2CCC(CNC(=O)CSc3ccc(F)cc3)CC2)c(C)o1`: the RP-LC retention time came to 583 s.

As to `O=C(Cc1ccsc1)Nc1ccc2c(c1)CCC(=O)N2`, the RP-LC retention time came out at 662 s.

Take `Cc1ccc(-c2cc3c(=O)n(CC(=O)N4CCCc5ccccc54)ccn3n2)cc1`: the RP-LC retention time was 643 s.

Turning to `CN1c2cc(Cl)ccc2C(=O)NC12CCN(C(=O)NCCc1ccccc1)CC2`, the RP-LC retention time was found to be 757 s.

`O=C(c1ccccc1)C1N=NCC1c1ccc(Cl)cc1` (stereo not given) displayed an RP-LC retention time of 1040 s.

With `Cc1ccc(-c2cc3c4nnc(CCC(=O)NCCCOC(C)C)n4ccn3n2)cc1C`, the RP-LC retention time came out at 759 s.

With `Cc1ccc(NC(=O)N2C[C@@H](F)C[C@H]2C(=O)N2CCc3ccccc3C2)cc1F`, the RP-LC retention time is 873 s.

`Cc1nc(Cn2cccc2C(=O)Nc2cccc(Br)c2)no1`: the RP-LC retention time amounted to 936 s.

`O=C(Nc1ccc(C2(C(=O)N3CCN(c4ccc(F)cc4)CC3)CCC2)cc1)C1CC1` showed an RP-LC retention time of 922 s.

With `CC1=C/C(=C2/N=C(N(C)C)SS2)C(C)=N1`, the RP-LC retention time was determined as 611 s.

`Fc1ccccc1CNc1cc(-n2cccn2)ncn1` had an RP-LC retention time of 838 s.

`COc1ccccc1CNC(=O)C1CCN(c2nnc3c(Cl)cccn23)CC1` gave an RP-LC retention time of 700 s.

As for `Fc1cccc(-c2nc(-c3ccc4c(c3)ncn4CCN3CCCC3)no2)c1`, the RP-LC retention time was determined as 634 s.

`COCCN1C(=O)CCc2cc(NS(=O)(=O)c3ccccc3Cl)ccc21` showed an RP-LC retention time of 771 s.

Compound `COc1ccc(CN2CCc3nc(N4CCCC4)ncc3C2)c(OC)c1` showed an RP-LC retention time of 619 s.

`CCc1ccccc1N(C(=O)C1CCCCC1)C1C=CS(=O)(=O)C1` (stereo not given) came in with an RP-LC retention time of 894 s.

`CC(C)CC(NC(=O)CC1CCCCC1)C(=O)Nc1nc2ccccc2[nH]1` (stereo not given) displayed an RP-LC retention time of 803 s.

As for `CCS(=O)(=O)Nc1ccc(-c2noc(-c3ccc4c(c3)OCO4)n2)cc1`, the RP-LC retention time was determined as 954 s.

For the compound `CCOC(=O)C1CCCN(S(=O)(=O)c2ccc(Cl)c(-c3nnc(-c4ccccc4)o3)c2)C1` (stereo not given), the RP-LC retention time is 1120 s.

On to `CCC(C)NC(=O)c1ccc2ncnc(N3CCCCC3)c2c1` (stereo not given), for which the RP-LC retention time stood at 618 s.

Turning to `Cc1ccn2cc(-c3ccc(NC(=O)Nc4cccc(Cl)c4)cc3)nc2n1`, the RP-LC retention time came to 692 s.

On to `CCN1CCN(CCNC(=O)C2CCCN(S(=O)(=O)N(C)c3ccc(F)cc3)C2)CC1` (stereo not given), for which the RP-LC retention time turned out to be 551 s.

`O=C1NCCCn2cc(S(=O)(=O)NC3CCCCCC3)cc21` registered an RP-LC retention time of 688 s.

`CC(C)(C)c1ccc(-c2csc(N)n2)cc1` had an RP-LC retention time of 666 s.

As to `O=C(CCc1ccccc1)Nc1cnc(-c2cccnc2)nc1`, the RP-LC retention time was 690 s.

`O=C(NCc1cccnc1)N(c1ccccc1)c1ccccc1` yielded an RP-LC retention time of 578 s.

On to `O=C(NCc1ccc(F)c(Cl)c1)c1ccc(NC(=O)C2CCC2)cc1N1CCOCC1`, for which the RP-LC retention time came to 909 s.

`Cc1ccn2c(NC(=O)COc3ccccc3)c(-c3ccccc3)nc2c1` had an RP-LC retention time of 683 s.

Compound `CCC1CCCCN1Cc1nc(Cn2ccn3nc(-c4ccccc4)cc3c2=O)no1` (stereo not given) displayed an RP-LC retention time of 676 s.

With `O=C(CN1C(=O)CCCc2ccccc21)N1CCN(c2ccc(Cl)cc2)CC1`, the RP-LC retention time is 944 s.

On to `O=C(NC1CCCC1)c1nc(C(=O)N2CCN(c3cccc(Cl)c3)CC2)cs1`, for which the RP-LC retention time came out at 1020 s.

With `Cc1cccc(Sc2nccnc2N2CCC(C(=O)N3CCOCC3)CC2)c1`, the RP-LC retention time was determined as 900 s.

On to `CCc1ccc(-c2nc(-c3ccc4nnc(CC)n4c3)no2)cc1`, for which the RP-LC retention time was found to be 1140 s.

For the compound `Nn1c(Cc2ccccc2)nnc1Cc1ccccc1`, the RP-LC retention time is 744 s.

Compound `COC(=O)c1ccc2c(=O)n(-c3ccc4c(c3)OCO4)c(N3CCOCC3)nc2c1` registered an RP-LC retention time of 875 s.

On to `Cc1ccc(CNC(=O)Cc2nnc(-c3ccccn3)o2)cc1`, for which the RP-LC retention time came out at 692 s.

Consider `Cc1nn(-c2ccc(F)cc2)c2nc(N3CCCC(C(=O)NCc4ccc(Cl)cc4)C3)sc12` (stereo not given), for which the RP-LC retention time stood at 1190 s.

`O=C(CN1C(=O)COc2ccc(C(=O)N3CCCCC3)cc21)N1CCc2ccccc2C1`: the RP-LC retention time is 788 s.

`O=C(c1cccnc1)N1CCC(c2nc(-c3ccccc3)no2)C1` (stereo not given) registered an RP-LC retention time of 726 s.

Take `CCn1ccc(C(=O)N2CCC(N3C(=O)C(O)C34CCCCC4)CC2)n1` (stereo not given): the RP-LC retention time amounted to 603 s.

In the case of `CCOc1ccc(S(=O)(=O)N(CC(=O)N2CCNCC2)CC2CCCO2)cc1` (stereo not given), the RP-LC retention time came out at 626 s.

`CNC(=O)c1n[nH]c2c1CCCCCC2` displayed an RP-LC retention time of 685 s.

`CCN(CC)C(=O)c1cnc2snc(C)c2c1N1CCC(C(=O)Nc2ccc(Br)c(C)c2)CC1`: the RP-LC retention time worked out at 1080 s.

Compound `O=C(C1=CN(c2ccc(F)c(F)c2)c2cc(Cl)ccc2S1(=O)=O)N1CCOCC1` displayed an RP-LC retention time of 775 s.

With `COc1ccc(C)cc1NC(=O)Nc1ccc2c(c1)CCN2S(=O)(=O)c1ccc(C)cc1`, the RP-LC retention time is 1100 s.

In turn, `COCCNC(=O)[C@@H]1[C@H](c2cc(OC)c(OC)c(OC)c2)c2cc3c(cc2[C@H](O)[C@H]1CO)OCO3` came in with an RP-LC retention time of 623 s.

Compound `Cc1ccccc1-c1noc(-c2nnn3c2COC(c2ccc(F)cc2)C3)n1` (stereo not given) returned an RP-LC retention time of 1000 s.

For the compound `Cc1ccc(CNC(=O)c2nnc(-c3ccc(S(=O)(=O)N4CCCCC4)cc3)o2)o1`, the RP-LC retention time is 952 s.

Regarding `CCCCNC(=O)c1ccc(-c2ccc3c(c2)CCN3C(C)=O)cc1`, the RP-LC retention time was determined as 832 s.

The compound `CCc1nnc(NC(=O)CSc2nnc(-c3ccc(Cl)cc3)o2)s1` showed an RP-LC retention time of 826 s.

Take `CCOc1ccc(C2NC(=O)NC(C)=C2C(=O)OC2CCCC2)cc1OC` (stereo not given): the RP-LC retention time came to 770 s.
